According to article PMC7237647, “Synthesis, in vitro and in vivo evaluation of ^11C-O-methylated arylpiperazines as potential serotonin 1A (5-HT1A) receptor antagonist radiotracers” (EJNMMI Radiopharmacy and Chemistry, 2020):

Tests used:
5-HT1B = biological target: T1, 5-HT1B (Homo sapiens, UniProt P28222); experiment: NIMH-PDSP radioligand binding assay, 5-HT1B
T1 construct: NIMH-PDSP
Description: (§1) . Cross selectivity for biogenic amines, neurotransmitter receptors, and transporters were determined by radioligand binding assays through NIMH- PDSP using validated and established protocols ([NIMH-PDSP Assay Protocol Book Version III, March 2018]).

5-HT1E = biological target: T2, 5-HT1E (Homo sapiens, UniProt P28566); experiment: NIMH-PDSP radioligand binding assay, 5-HT1E
T2 construct: NIMH-PDSP
T2 sequence (P28566 whole entry, species assumed): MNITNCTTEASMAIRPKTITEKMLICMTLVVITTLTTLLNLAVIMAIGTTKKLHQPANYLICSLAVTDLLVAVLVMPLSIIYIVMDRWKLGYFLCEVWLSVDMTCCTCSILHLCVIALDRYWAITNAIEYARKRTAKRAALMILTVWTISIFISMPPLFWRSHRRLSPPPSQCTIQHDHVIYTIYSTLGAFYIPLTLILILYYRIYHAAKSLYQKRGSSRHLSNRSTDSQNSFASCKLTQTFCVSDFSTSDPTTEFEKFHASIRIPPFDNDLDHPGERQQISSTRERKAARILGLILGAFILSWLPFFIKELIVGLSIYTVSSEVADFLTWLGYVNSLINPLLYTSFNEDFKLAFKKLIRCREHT
Description: as §1

5-HT1D = biological target: T3, 5-HT1D (Homo sapiens, UniProt P28221); experiment: NIMH-PDSP radioligand binding assay, 5-HT1D
T3 construct: NIMH-PDSP
T3 sequence (P28221 whole entry, species assumed): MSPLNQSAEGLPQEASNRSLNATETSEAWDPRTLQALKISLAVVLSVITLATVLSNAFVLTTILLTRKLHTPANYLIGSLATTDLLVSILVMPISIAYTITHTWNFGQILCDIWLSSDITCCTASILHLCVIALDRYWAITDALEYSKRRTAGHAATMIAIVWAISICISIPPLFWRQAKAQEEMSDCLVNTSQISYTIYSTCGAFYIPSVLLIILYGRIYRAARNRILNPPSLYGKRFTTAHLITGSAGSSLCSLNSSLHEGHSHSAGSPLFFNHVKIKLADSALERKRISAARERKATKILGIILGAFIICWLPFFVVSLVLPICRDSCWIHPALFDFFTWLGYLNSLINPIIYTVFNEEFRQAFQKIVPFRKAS
Description: as §1

5-HT2B = biological target: T4, 5-HT2B (Homo sapiens, UniProt P41595); experiment: NIMH-PDSP radioligand binding assay, 5-HT2B
T4 construct: NIMH-PDSP
Description: as §1

5-HT3 = biological target: T5, 5-HT3 (Homo sapiens, UniProt P46098); experiment: NIMH-PDSP radioligand binding assay, 5-HT3
T5 construct: NIMH-PDSP
T5 sequence (P46098 24-478): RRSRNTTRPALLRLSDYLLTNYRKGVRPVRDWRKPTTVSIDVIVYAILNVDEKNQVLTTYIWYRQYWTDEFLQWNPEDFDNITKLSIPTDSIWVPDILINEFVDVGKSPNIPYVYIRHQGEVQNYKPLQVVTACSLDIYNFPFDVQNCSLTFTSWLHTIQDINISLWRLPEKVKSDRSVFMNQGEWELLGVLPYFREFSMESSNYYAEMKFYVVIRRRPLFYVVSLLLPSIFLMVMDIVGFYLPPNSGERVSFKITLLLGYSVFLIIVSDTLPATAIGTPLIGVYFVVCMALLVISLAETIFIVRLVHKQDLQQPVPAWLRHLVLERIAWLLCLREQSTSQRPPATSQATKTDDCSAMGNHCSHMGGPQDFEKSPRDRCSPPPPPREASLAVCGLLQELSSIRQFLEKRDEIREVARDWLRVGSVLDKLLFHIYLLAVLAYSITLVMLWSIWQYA
Description: as §1

5-HT4 = biological target: T6, 5-HT4 (Homo sapiens, UniProt Q13639); experiment: NIMH-PDSP radioligand binding assay, 5-HT4
T6 construct: NIMH-PDSP
T6 sequence (Q13639 whole entry, species assumed): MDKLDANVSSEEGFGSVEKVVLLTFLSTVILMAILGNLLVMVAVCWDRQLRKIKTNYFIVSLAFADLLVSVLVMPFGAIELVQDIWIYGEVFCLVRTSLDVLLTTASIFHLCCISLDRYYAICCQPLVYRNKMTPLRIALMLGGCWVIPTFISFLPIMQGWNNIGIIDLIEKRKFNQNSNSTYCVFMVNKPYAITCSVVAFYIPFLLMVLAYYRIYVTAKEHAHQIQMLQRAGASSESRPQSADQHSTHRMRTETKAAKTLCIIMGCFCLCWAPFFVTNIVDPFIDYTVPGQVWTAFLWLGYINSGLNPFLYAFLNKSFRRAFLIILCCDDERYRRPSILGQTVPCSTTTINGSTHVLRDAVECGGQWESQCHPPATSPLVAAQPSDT
Description: as §1

5-HT5a = biological target: T7, 5-HT5a (Homo sapiens, UniProt P47898); experiment: NIMH-PDSP radioligand binding assay, 5-HT5a
T7 construct: NIMH-PDSP
T7 sequence (P47898 whole entry, species assumed): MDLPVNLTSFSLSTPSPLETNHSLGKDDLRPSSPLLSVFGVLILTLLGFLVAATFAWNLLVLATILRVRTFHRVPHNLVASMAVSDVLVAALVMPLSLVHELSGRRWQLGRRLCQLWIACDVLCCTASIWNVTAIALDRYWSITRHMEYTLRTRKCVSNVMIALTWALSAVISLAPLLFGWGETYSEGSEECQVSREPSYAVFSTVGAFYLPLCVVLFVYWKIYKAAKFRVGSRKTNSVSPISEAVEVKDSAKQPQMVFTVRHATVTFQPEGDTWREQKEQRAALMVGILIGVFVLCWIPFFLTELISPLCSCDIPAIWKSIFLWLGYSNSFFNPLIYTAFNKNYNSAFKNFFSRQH
Description: as §1

5-HT6 = biological target: T8, 5-HT6 (Homo sapiens, UniProt P50406); experiment: NIMH-PDSP radioligand binding assay, 5-HT6
T8 construct: NIMH-PDSP
T8 sequence (P50406 whole entry, species assumed): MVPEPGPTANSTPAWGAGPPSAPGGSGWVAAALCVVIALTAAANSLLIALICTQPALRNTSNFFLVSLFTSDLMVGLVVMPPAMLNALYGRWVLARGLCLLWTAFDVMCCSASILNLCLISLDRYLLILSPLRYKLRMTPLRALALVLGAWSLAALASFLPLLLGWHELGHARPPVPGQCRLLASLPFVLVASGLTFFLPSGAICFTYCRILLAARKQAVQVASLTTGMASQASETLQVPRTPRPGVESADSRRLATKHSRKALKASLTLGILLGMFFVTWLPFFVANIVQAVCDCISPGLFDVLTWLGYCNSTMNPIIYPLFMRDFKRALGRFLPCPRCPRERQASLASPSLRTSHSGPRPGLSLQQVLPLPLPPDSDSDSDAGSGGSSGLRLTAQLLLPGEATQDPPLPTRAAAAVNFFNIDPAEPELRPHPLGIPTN
Description: as §1

D3R = biological target: T9, D3R (Homo sapiens, UniProt P35462); experiment: NIMH-PDSP radioligand binding assay, D3R
T9 construct: NIMH-PDSP
T9 sequence (P35462 whole entry): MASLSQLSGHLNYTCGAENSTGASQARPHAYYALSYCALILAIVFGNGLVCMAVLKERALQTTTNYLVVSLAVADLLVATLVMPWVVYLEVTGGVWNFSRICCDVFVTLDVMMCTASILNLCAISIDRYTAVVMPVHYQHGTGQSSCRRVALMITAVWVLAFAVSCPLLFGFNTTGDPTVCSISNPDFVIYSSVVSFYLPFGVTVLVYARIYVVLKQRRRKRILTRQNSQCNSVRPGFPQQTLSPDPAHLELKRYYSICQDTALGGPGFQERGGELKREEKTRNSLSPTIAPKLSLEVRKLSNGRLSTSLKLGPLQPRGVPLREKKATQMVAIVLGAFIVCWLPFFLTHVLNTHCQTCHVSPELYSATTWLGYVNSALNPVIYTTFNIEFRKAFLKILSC
Description: as §1

D4R = biological target: T10, D4R (Homo sapiens, UniProt P21917); experiment: NIMH-PDSP radioligand binding assay, D4R
T10 construct: NIMH-PDSP
T10 sequence (P21917 1-419): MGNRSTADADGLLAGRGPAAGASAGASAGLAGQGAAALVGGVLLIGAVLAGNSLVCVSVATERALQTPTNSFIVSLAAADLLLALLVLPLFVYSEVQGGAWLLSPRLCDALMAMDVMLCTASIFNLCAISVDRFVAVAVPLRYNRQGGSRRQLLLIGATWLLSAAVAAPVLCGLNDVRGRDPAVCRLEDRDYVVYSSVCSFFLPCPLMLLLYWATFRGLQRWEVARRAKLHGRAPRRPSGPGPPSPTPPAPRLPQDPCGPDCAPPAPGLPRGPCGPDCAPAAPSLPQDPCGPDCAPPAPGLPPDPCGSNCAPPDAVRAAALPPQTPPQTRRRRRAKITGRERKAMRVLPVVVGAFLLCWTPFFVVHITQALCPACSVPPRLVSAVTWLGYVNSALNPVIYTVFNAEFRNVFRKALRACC
Description: as §1

DAT = DAT (Homo sapiens, UniProt Q01959); experiment: NIMH-PDSP radioligand binding assay, DAT
DAT, sequence (Q01959 whole entry, species assumed): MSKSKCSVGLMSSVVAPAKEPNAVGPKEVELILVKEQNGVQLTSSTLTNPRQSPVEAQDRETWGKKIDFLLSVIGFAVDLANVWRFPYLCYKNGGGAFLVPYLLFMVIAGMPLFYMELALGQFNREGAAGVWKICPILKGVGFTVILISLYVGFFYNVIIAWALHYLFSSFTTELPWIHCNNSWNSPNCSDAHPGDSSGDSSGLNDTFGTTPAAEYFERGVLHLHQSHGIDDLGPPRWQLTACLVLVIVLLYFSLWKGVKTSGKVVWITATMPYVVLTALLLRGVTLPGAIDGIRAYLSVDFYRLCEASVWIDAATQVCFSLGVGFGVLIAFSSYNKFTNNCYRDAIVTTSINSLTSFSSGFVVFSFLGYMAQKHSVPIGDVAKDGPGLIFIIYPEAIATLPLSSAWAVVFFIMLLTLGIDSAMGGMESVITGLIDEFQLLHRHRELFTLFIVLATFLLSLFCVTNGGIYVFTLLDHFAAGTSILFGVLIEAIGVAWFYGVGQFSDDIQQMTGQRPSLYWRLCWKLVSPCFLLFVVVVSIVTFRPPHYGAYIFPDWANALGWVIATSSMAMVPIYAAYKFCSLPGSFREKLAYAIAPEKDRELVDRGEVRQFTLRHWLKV
Description: as §1

NET = NET (Homo sapiens, UniProt P23975); experiment: NIMH-PDSP radioligand binding assay, NET
Description: as §1

SERT = SERT (Homo sapiens, UniProt P31645); experiment: NIMH-PDSP radioligand binding assay, SERT
SERT, sequence (P31645 whole entry, species assumed): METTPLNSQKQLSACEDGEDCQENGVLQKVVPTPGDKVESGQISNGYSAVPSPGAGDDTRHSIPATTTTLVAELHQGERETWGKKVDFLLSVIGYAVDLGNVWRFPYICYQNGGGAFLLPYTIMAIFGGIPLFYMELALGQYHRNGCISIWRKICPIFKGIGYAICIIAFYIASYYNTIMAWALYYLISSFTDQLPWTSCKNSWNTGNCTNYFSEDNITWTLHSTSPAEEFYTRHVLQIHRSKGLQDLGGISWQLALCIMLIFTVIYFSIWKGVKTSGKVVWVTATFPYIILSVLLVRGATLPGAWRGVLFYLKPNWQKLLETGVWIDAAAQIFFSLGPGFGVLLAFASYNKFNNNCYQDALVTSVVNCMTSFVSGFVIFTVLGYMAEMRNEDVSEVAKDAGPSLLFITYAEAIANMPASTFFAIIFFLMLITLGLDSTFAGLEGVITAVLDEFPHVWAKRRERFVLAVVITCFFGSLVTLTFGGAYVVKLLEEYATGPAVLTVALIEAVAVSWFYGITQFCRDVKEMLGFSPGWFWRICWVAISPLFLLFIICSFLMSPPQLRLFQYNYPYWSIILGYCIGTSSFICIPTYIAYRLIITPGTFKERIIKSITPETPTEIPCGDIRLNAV
Description: as §1

NOP = biological target: T11, NOP (Homo sapiens, UniProt P41146); experiment: NIMH-PDSP radioligand binding assay, NOP
T11 construct: NIMH-PDSP
T11 sequence (P41146 whole entry): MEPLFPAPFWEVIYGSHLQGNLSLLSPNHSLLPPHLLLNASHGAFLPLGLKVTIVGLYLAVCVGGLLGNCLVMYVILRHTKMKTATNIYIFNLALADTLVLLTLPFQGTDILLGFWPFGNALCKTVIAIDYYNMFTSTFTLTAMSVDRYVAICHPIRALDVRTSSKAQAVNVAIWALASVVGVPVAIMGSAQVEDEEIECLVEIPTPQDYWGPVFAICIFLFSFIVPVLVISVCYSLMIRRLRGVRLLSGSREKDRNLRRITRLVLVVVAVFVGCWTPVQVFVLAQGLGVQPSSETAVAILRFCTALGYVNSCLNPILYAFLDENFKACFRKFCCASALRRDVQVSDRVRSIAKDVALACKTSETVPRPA
Description: as §1

PBR = biological target: T12, PBR (Rattus norvegicus, UniProt P16257); experiment: NIMH-PDSP radioligand binding assay, PBR
T12 construct: NIMH-PDSP
Description: as §1

Sigma1R = biological target: T13, Sigma1R (Homo sapiens, UniProt Q99720); experiment: NIMH-PDSP radioligand binding assay, Sigma1R
T13 construct: NIMH-PDSP
T13 sequence (Q99720 whole entry, species assumed): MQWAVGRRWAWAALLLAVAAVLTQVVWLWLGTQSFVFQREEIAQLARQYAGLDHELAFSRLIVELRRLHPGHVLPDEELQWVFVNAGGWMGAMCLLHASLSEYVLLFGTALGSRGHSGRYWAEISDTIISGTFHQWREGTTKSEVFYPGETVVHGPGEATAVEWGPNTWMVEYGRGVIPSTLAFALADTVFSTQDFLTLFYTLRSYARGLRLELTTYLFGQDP
Description: as §1

[1] = Dynamic PET/MR imaging of brain uptake in rats; format: in vivo; details: rat; for Brain uptake: dynamic PET, bolus i.v. injection, 60 min scan
Description: […]. All experimental procedures were carried out in accordance with the Institutional Animal Care Committee ethical guidelines (Animal Use Protocol # 783).
Adult male Sprague Dawley rats (500–600 g, 8–12 months old) were anesthetized by isoflurane (5% induction; O2 rate: 2 L/min) and catheterized in the lateral tail vein using a Surflash Polyurethane IV Catheter 24G × 3/4″(Terumo; Somerset, New Jersey, US). Following insertion, the catheter was flushed with heparinized saline (30 IU/ml, ~ 200 μl). The animal was transferred to the scanner bed in prone position, the head immobilized in a flat skull position for the duration of the acquisition using built in ear and bite bars; the scanner bed temperature was initially set at 40 °C but was subject to alteration based on animals’ body temperature during the experiment. Anesthesia was maintained throughout the PET/MR scanning procedure (isoflurane: 1.5–2%; O2 rate: 1 L/min) and the animals’ body temperature and respiration parameters were closely monitored.
Imaging studies were conducted on a nanoScan PET/MRI 3 T tomograph (Mediso; Budapest, Hungary). At first, a scout MR was acquired for subsequent PET field of view (FOV) positioning. MR images were used to define anatomical regions of interest (ROIs) through PET/MRI image co-registration. MR sequences included: material map T1-weighted 2D-gradient echo (GRE, TR 354 ms, TE 3.64) multi-FOV sequence for PET and MR co-registration and PET scatter and attenuation corrections, and T2-weighted 2D-fast spin-echo (FSE, TR 3971 ms, TE 87.5 ms) sequence for co-registration with standard rat brain MR template and atlas of Schwarz et al. ([2006]), and PET ROI analyses. MR images were acquired either before or after PET imaging.
[…]. mass injected for [^11C]1–3: 0.15–0.40 nmol/kg), a 60 min emission list mode scan was acquired with an energy window of 400–600 keV.
The acquired list mode data was sorted into 33, 3D (3 × 5 s, 3 × 15 s, 3 × 20s, 7 × 60s and 17 × 180 s) true sinograms (ring difference 84). The 3D sinograms were converted in 2D sinograms using fourier-rebinning (Defrise et al. [1997]), during which corrections were included for detector geometry and efficiencies, attenuation and scatter, prior to image reconstruction using a 2D–filtered back projection (FBKP) with an Hann filter at a cutoff of 0.50 cm-1. A static image of the complete emission acquisition was reconstructed with the manufacturer’s proprietary iterative 3D algorithm (6 subsets, 4 iterations). All image data were corrected for dead-time and decay corrected to the start of acquisition. The dynamic FBKP images were used for the extraction of time-activity curves (TACs). The static iterative image was used for PET and MR co-registration and also for co-registration with standard rat brain MR template and atlas (Schwarz et al. [2006]). Image analyses and extraction of regional brain TACs were performed using Amide software (v1.0.4) (Loening and Gambhir [2003]). Standardized uptake values (SUV) were calculated by normalizing regional radioactivity for injected radioactivity and body weight of the animal. Regional brain BP were obtained by using simplified reference tissue model (SRTM) of Lammertsma and Hume ([1996]), with averaged TACs of left and right cerebellum as the reference. […] Percentages of blocking were calculated by the equation: Blocking% = 100 x (BPblocking – BPbaseline)/BPbaseline.

α1-adrenergic receptors [2] = experiment: PET/MR blocking study with prazosin pre-treatment; format: in vivo, Sprague Dawley rats; details: prazosin 2 mg/kg IV 20 min prior to tracer, rat
Description: 5-HT1A receptor selectivity of the radiotracer with the most promising brain penetrating properties was further investigated in two separate baseline and pre-treatment (blocking) experiments. A within-subject PET/MR imaging design was employed for baseline and blocking experiments. In the first PET/MR imaging session, brain radiotracer uptake was determined under baseline conditions whereby radiotracer was intravenously administered simultaneously with the start of PET acquisition. The catheter was flushed with heparinized saline (~ 100 μl) and capped to allow blocker/radiotracer injections for the subsequent pre-treatment experiment. Before the start of the second PET measurement, the animals were infused with a suitable blocking agent intravenously 20 min prior to radiotracer injection and concomitant PET acquisition. To confirm target engagement at 5-HT1A receptor, WAY-100635 maleate (Sigma-Aldrich), a potent 5-HT1A receptor antagonist (2 mg/kg) was infused intravenously 20 min before radiotracer injection. In order to further investigate potential off-target binding at α1-adrenergic receptors in vivo, prazosin hydrochloride (Sigma-Aldrich), a potent α1-adrenergic receptor antagonist (2 mg/kg) was infused 20 min before radiotracer injection and PET acquisition.
The acquired list mode data was sorted into 33, 3D (3 × 5 s, 3 × 15 s, 3 × 20s, 7 × 60s and 17 × 180 s) true sinograms (ring difference 84). The 3D sinograms were converted in 2D sinograms using fourier-rebinning (Defrise et al. [1997]), during which corrections were included for detector geometry and efficiencies, attenuation and scatter, prior to image reconstruction using a 2D–filtered back projection (FBKP) with an Hann filter at a cutoff of 0.50 cm-1. A static image of the complete emission acquisition was reconstructed with the manufacturer’s proprietary iterative 3D algorithm (6 subsets, 4 iterations). All image data were corrected for dead-time and decay corrected to the start of acquisition. The dynamic FBKP images were used for the extraction of time-activity curves (TACs). The static iterative image was used for PET and MR co-registration and also for co-registration with standard rat brain MR template and atlas (Schwarz et al. [2006]). Image analyses and extraction of regional brain TACs were performed using Amide software (v1.0.4) (Loening and Gambhir [2003]). Standardized uptake values (SUV) were calculated by normalizing regional radioactivity for injected radioactivity and body weight of the animal. Regional brain BP were obtained by using simplified reference tissue model (SRTM) of Lammertsma and Hume ([1996]), with averaged TACs of left and right cerebellum as the reference. This was performed by using the basis function method (BFM) of Gunn et al. ([1997]) in the package of Turku PET Centre (https://gitlab.utu.fi/vesoik/tpcclib) (Gunn et al. [1997]). Percentages of blocking were calculated by the equation: Blocking% = 100 x (BPblocking – BPbaseline)/BPbaseline.

α1-adrenergic receptors [3] = biological target: α1-adrenergic receptors; set-up: method as in Chemel et al. [2006]; details: ref Chemel et al. [2006]; cited from earlier work
5-HT1A receptors = biological target: 5-HT1A receptors; set-up: method as in Yasuno et al. [2006]; details: ref Yasuno et al. [2006]; cited from earlier work
5-HT2B receptors = biological target: 5-HT2B receptors; set-up: method as in Yasuno et al. [2006]; details: ref Yasuno et al. [2006]; cited from earlier work
[4] = biological target: alpha-1 (α1) adrenergic receptors; set-up: method as in Yasuno et al. [2006]; details: ref Yasuno et al. [2006]; cited from earlier work
D2 = biological target: D2; set-up: method as in Yasuno et al. [2006]; details: ref Yasuno et al. [2006]; cited from earlier work
D3 = biological target: D3; set-up: method as in Yasuno et al. [2006]; details: ref Yasuno et al. [2006]; cited from earlier work
D4 = biological target: D4; set-up: method as in Yasuno et al. [2006]; details: ref Yasuno et al. [2006]; cited from earlier work

T1 sequence (P28222 whole entry, species assumed): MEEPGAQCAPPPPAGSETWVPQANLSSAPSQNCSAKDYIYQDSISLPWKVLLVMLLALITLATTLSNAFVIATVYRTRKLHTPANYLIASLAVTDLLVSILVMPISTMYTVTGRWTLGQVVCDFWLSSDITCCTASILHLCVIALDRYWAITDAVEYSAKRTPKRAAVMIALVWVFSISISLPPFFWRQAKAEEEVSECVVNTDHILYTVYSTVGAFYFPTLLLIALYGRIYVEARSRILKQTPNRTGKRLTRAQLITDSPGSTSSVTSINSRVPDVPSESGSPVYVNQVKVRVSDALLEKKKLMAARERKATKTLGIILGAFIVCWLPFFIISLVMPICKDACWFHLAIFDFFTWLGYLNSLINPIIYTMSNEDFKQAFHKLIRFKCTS

## COc1ccccc1N1CCN(CCNC(=O)c2ccncc2)CC1 [Compound 3]
5-HT1B
  Ki: > 10 µM
5-HT1E
  Ki: > 10 µM
5-HT1D
  Ki: 1.18 µM
5-HT2B
  Ki: 0.137 µM
5-HT3
  Ki: > 10 µM
5-HT4
  Ki: > 10 µM
5-HT5a
  Ki: 1.81 µM
5-HT6
  Ki: > 10 µM
D3R
  Ki: 0.133 µM
D4R
  Ki: 0.153 µM
DAT
  Ki: > 10 µM
NET
  Ki: > 10 µM
SERT
  Ki: > 10 µM
NOP
  Ki: > 10 µM
PBR
  Ki: > 10 µM
Sigma1R
  Ki: > 10 µM

## [11CH3]Oc1ccccc1N1CCN(CCCN/C(=N\C#N)c2ccccn2)CC1 [[^11C]1]
[1]
  Brain uptake: negligible

## N#CN=C(NCCCN1CCN(c2ccccc2O)CC1)c1ccccn1 [compound 7, N'-Cyano-N-(3-(4-(2-hydroxyphenyl)piperazin-1-yl)propyl)picolinamidine]
other
  melting point: 137 to 138 °C

## O=C(NCCN1CCN(c2ccccc2O)CC1)c1ccccn1 [10a, N-(2-(4-(2-hydroxyphenyl)piperazin-1-yl)ethyl)picolinamide]
other
  melting point: 112 to 113 °C

## O=C(NCCN1CCN(c2ccccc2O)CC1)c1ccncc1 [10b, N-(2-(4-(2-hydroxyphenyl)piperazin-1-yl)ethyl)isonicotinamide]
other
  melting point: 105 to 106 °C

## [11CH3]Oc1ccccc1N1CCN(CCNC(=O)c2ccncc2)CC1 [[^11C]3]
[1]; male, Sprague Dawley, in vivo
  early peak SUV in brain: 4–5
  time of early peak SUV following radiotracer injection: ~ 1 min
[1]; in vivo
  washout from brain: fast
α1-adrenergic receptors [2]; SRTM, cerebellum reference
  decrease of whole brain BP: 63%
α1-adrenergic receptors [2]
  decrease of BP in anterior cingulate cortex: 69%
  decrease of BP in hippocampus: 56%
  decrease of BP in striatum: 34%
  decrease of BP in thalamus: 73%
  decrease of binding in the saliva gland: 68%

## [11CH3]Oc1ccccc1N1CCN(CCNC(=O)c2ccccn2)CC1 [[^11C]2]
[1]
  Brain uptake: negligible

## COc1ccccc1N1CCN(CCN(C(=O)C2CCCCC2)c2ccccn2)CC1 [[carbonyl-^11C]WAY100635]
α1-adrenergic receptors [3]
  Ki: 0.0164 µM

## COc1ccccc1N1CCN(CCC(C(=O)N2CCCCCC2)c2ccccc2)CC1 (stereo in doubt) [[^11C](R)-RWAY]
5-HT1A receptors
  Ki: 0.0006 µM
5-HT2B receptors
  Ki: 0.0072 µM
[4]
  Ki: 0.0103 µM
D2
  Ki: 0.0345 µM
D3
  Ki: 0.0051 µM
D4
  Ki: 0.0156 µM
